Data: patent publication US20070066996A1, “Modafinil-based neurorehabilitation of impaired neurological function associated with brian injury” (priority 2003, published 2007)
Entries after “also recorded” stand apart in the source; their conditions may differ. Marks after values point to notes of the source that are not given here.

Tests used:
[1] = tested on: individuals who have sustained a brain injury; conditions: individuals with brain injury; L-dopa at high doses; co-filed international application; cited from earlier work
[2] = tested on: chronic post-TBI patients with motor deficits; experiment: Open-label study: overall functional motor performance and reported adverse effects; assay type: in vivo, human; conditions: two patients
Protocol: A clinical study was performed to evaluate the effect of modafinil on the functional outcome of the paretic arm of patients recovering from a brain injury.
(§1) Two chronic post-TBI patients with motor deficits were treated for two consecutive weeks with modafinil (a single 200 mg/day dose, orally). Additionally, three hours after administration of the drug, these patients received one hour of occupational therapy in the morning and one hour of motor training at home in the afternoon. Primary outcomes were the pinch strength measured with a mechanic dynamometer, the number of blocks that the patient can pass in one minute in a box and block test, and the time required to complete a grooved pegboard test as described below.
(§2) Patients were assessed at baseline, treated for two weeks, assessed at the end of the treatment, and assessed again 90 days after commencement of treatment.
(§3) Patients were chronic post-traumatic brain injured individuals that were treated for two consecutive weeks with a 200 mg/day, single dose, of modafinil from Monday through Friday. Additionally, the patients received one hour of occupational therapy three hours after the oral intake of the drug and one hour of motor training at home. Primary outcomes were the pinch strength measured with a mechanic dynamometer, the number of blocks that the patient could pass in one minute in a box and block test, and the time required to complete a grooved pegboard at baseline. Primary outcomes were assessed at two weeks and 90 days from commencement of treatment.

[3] = tested on: dopamine transporter knock-out mice; conditions: Wisor et al. 2001; cited from earlier work
extracellular dopamine = conditions: Wisor et al., J. Neuroscience 2001; cited from earlier work
[4] = tested on: chronic post-TBI patients with motor deficits; experiment: Box and Block Test of manual dexterity, open-label modafinil study; assay type: in vivo, human
Protocol: as §1
The “Box and Block Test” is a standardized test of manual dexterity, which provides a baseline for upper extremity manual dexterity and gross motor coordination. The test is quick and simple to administer and uses […] (1″) colored wooden blocks.
as §2, §3

[5] = tested on: chronic post-TBI patients with motor deficits; experiment: Pinch strength (mechanic dynamometer), open-label modafinil study; assay type: in vivo, human
Protocol: as §1
The Pinch Force Dynamometer is a hand-held device capable of measuring instantaneous strength of the thumb and opposing finger or groupings of fingers as a function of time. The principle components are a pinch force transducer, instrumentation amplifier, and associated cables. Dynamic voltage representing instantaneous finger(s) pinch strength as a function of time is taken from the output of the instrumentation amplifier and sent to a laptop computer or to a data acquisition system for data manipulation, display, correlation with other data sources, and/or storage.
as §2, §3

Compound: CN1CCc2cccc3c2[C@H]1Cc1ccc(O)c(O)c1-3 [apomorphine]
- treating impaired neurological function, including emergence from coma and other altered consciousness states [1]: particularly effective

Compound: NC(=O)C[S+]([O-])C(c1ccccc1)c1ccccc1 (stereo not drawn) [modafinil, 2-[(diphenylmethyl)sulfinyl]acetamide]
- persistence of the improvements ([2]; 90 days after commencement of treatment): sustained at 90 days
- adverse effect reported with the medication ([2]; modafinil 200 mg/day orally, two weeks): Neither of the patients reported any adverse effect; also recorded: did not report any adverse effect
- functional motor performance in the intact hand ([2]; two-week course of modafinil): slight improvement
- functional motor performance in the paretic hands ([2]; two-week course of modafinil 200 mg/day orally): improved functional motor performance
- response to the action of modafinil [3]: unresponsive
- extracellular dopamine (extracellular dopamine): increased extracellular dopamine
- Box and Block ([4]; Patient 1, affected hand, 14 days, baseline 34): 46 # blocks passed in 1 min
- Box and Block ([4]; Patient 1, affected hand, 90 days, baseline 34): 46 # blocks passed in 1 min
- Box and Block ([4]; Patient 1, intact hand, 14 days, baseline 54): 59 # blocks passed in 1 min
- Box and Block ([4]; Patient 1, intact hand, 90 days, baseline 54): 55 # blocks passed in 1 min
- Box and Block ([4]; Patient 2, affected hand, 14 days, baseline 30): 40 # blocks passed in 1 min
- Box and Block ([4]; Patient 2, affected hand, 90 days, baseline 30): 40 # blocks passed in 1 min
- Box and Block ([4]; Patient 2, intact hand, 14 days, baseline 54 (table) / 62): 65 # blocks passed in 1 min
- Box and Block ([4]; Patient 2, intact hand, 90 days, baseline 54 (table) / 62): 76 # blocks passed in 1 min
- Pinch Strength ([5]; Patient 1, affected hand, 14 days, modafinil 200 mg/day orally for two weeks plus therapy, baseline 14.3): 16.8 Pounds
- Pinch Strength ([5]; Patient 1, affected hand, 90 days from commencement, baseline 14.3): 17.6 Pounds
- Pinch Strength ([5]; Patient 1, intact hand, 14 days, baseline 13.5): 14.6 Pounds
- Pinch Strength ([5]; Patient 1, intact hand, 90 days, baseline 13.5): 15 Pounds
- Pinch Strength ([5]; Patient 2, affected hand, 14 days, baseline 17): 21.3 Pounds
- Pinch Strength ([5]; Patient 2, affected hand, 90 days, baseline 17): 19.3 Pounds
- Pinch Strength ([5]; Patient 2, intact hand, 14 days, baseline 23): 24 Pounds
- Pinch Strength ([5]; Patient 2, intact hand, 90 days, baseline 23): 23.6 Pounds

Compound: N[C@@H](Cc1ccc(O)c(O)c1)C(=O)O [L-dopa]
- treating impaired neurological function, including emergence from coma and other altered consciousness states [1]: particularly effective
